Test results as given in patent US20200078471A1, “RENAL CLEARABLE DRUG DELIVERING NANOPARTICLES AND METHODS OF USE THEREFOR” (priority 2018, published 2020).
“Also recorded” adds a separate entry of the source.

Legend:
[1] = Acute toxicity, successive treatment (body weight, blood chemistry, H&E)
Protocol: (§1) Toxicity studies. […] For blood chemistry study, the blood was collected through cardiac puncture 15 days p.i. and kept on ice for 30 min for coagulation. […] The organs and tissues were also collected, fixed in formalin (10%) and embedded in paraffin before H&E staining and pathological evaluation. […] The mice were sacrificed on 10 days p.i. and the blood were extracted via cardiac puncture.

[2] = Renal clearance (urine DOX by HPLC, gold by ICP-MS); assay type: in vivo, female CD-1 mice; details: 24 hr p.i., intravenous
Source text: (§2) Clearance, physiological stability, and elimination. […] The DOX concentrations were quantified based on fluorescence analysis.

[3] = Pharmacokinetic study, DOX in blood
Protocol: Clearance, physiological stability, and elimination. […] Since DOX is highly fluorescent, the fluorescence signals were collected at 610 nm with excitation at 470 nm. […] Extraction was performed at −20° C. for overnight and supernatant was obtained after centrifugation at 15,000 g for 10 min. The DOX concentrations were quantified based on fluorescence analysis. […] For pharmacokinetic study, the DOX concentrations in blood were analysed using HPLC with the same approach described above.

4T1 lung metastasis = experiment: Metastatic lung cancer model, nodule count and size; assay type: in vivo, female Balb/c mice; details: 5 mg/kg DOX equivalent ×5, day 23
[4] = test system: MCF-7 human breast cancer xenograft; experiment: Tumor targeting efficiency; assay type: in vivo, nude mice; details: 12 hr p.i., DOX 5 mg/kg i.v.
Protocol: Tumor targeting, penetration and antitumor efficacy studies. […] The tumors were collected and homogenized and DOX concentrations were measured using the same approaches described in the biodistribution studies. The ex vivo tumor fluorescence imaging was acquired using a Carestream Molecular imaging system In-Vivo FX PRO with an excitation filter of 470±10 nm and an emission filter of 600±20 nm. […] The mice were sacrificed 12 hr and 3 days p.i. respectively. Tumor tissues were fixed, embedded in paraffin and sliced before haematoxylin and eosin (H&E), and silver staining. To enable visualization of AuNPs in the tumor issues, dewaxed tumor slides were incubated with silver nitrate (0.1 M) and hydroquinone (2 mM) for 15 min at room temperature, followed by washing with pure water and haemotoxylin and eosin staining (Du et al., 2017). […] The length (L) and width (W) of the tumors were measured with a digital calliper and the volume (V) was calculated by the equation V=½ LW^2. The body weights were also monitored during the treatment. […] For survival study, the tumor bearing mice were treated same with therapeutic study, and tumor sizes were monitored. […] To establish the metastatic lung cancer model, female Balb/c mice were implanted with 4T1 mammary cancer cells subcutaneously and the cancer cells would be readily developed as lung metastatic nodules after a week.

[5] = DOX and AuNP biodistribution in organs and tissues; assay type: in vivo, CD-1 mice
Source text: as §2

[6] = Maximal tolerated dose, single dose; details: single i.v. dose, 10 days
Protocol: as §1

[7] = equivalent DOX 5 mg/kg ×5, within 10 days

COc1cccc2c1C(=O)c1c(O)c3c(c(O)c1C2=O)C[C@@](O)(C(=O)CO)C[C@@H]3O[C@H]1C[C@H](N)[C@H](O)[C@H](C)O1 [free DOX, doxorubicin]
hepatocyte anisocaryosis and anisocytosis (H&E liver) ([1]; 15 days p.i.): increase in hepatocyte anisocaryosis and anisocytosis; also recorded: evident | hepatocyte nuclei size distribution width ([1]; 15 days p.i.): significant higher distribution width | pathological signs in heart, kidney, spleen and muscle ([1]; 15 days p.i.): no observable pathological signs | blood chemistry, liver function (ALT, AST, ALKP, albumin) ([1]; 15 days p.i., 5 mg/kg ×5): increased alanine aminotransferase (ALT) and aspartate aminotransferase (AST) levels and decreased alkaline phosphatase (ALKP) and albumin levels in serum | blood chemistry, renal function (BUN, CREA) ([1]; 15 days p.i., 5 mg/kg ×5): increased blood urea nitrogen (BUN) and creatinine (CREA) levels in serum | body weight loss [1, 7]: ~10% | mortality [1, 7]: 25% | DOX-based renal clearance (renally cleared DOX) [2]: 6.1±1.1 % ID | 24-h area under curve (AUC) ([3]; DOX in blood): 2.2 % ID·h/g | distribution half-life t1/2a ([3]; plasma, CD-1 mice): 4.8 min | count of metastatic tumor nodules in the lungs (per mouse) (4T1 lung metastasis): 62.6±30.5 | size of metastatic lung tumor nodules (4T1 lung metastasis): 1.64±0.77 mm | tumor targeting of DOX [4]: 0.79±0.22 % ID/g | DOX distribution in the kidneys ([5]; 1 hr p.i.): 11.4 % ID/g | DOX accumulation in the liver ([5]; 24 h p.i.): even lower accumulation in the liver | decrease of muscle DOX from 1 to 24 h ([5]; mouse, in vivo): 19.7% | maximal tolerance dose (MTD, in terms of DOX) [6]: 10 mg/kg body weight
